For series [1], the system named is fruit flies (Drosophila melanogaster). The series is described as follows: Polymorph lethality, dust, residual exposure method, fruit flies. The series is classed as in vivo. Conditions: for average knockdown time / median knockdown time (KT50): 2 mg deltamethrin dust; for average knockdown time / median knockdown time (KT50) / longest survival (no individual survived more than) / onset of hyperactivity: female fruit flies; for longest survival (no individual survived more than) / onset of hyperactivity: 2 mg dust in 35 mm Petri dish. The procedure:
(§1) The effect of deltamethrin polymorphs on fruit flies was determined by the residual exposure method. Bruck, D. J.; Bolda, M.; Tanigoshi, L.; Klick, J.; Kleiber, J.; DeFrancesco, J.; Gerdeman, B.; Spitler, H. Laboratory and field comparisons of insecticides to reduce infestation of Drosophila suzukii in berry crops. Pest. Manag. Sci. 2011, 67, 1375-1385. Lethality assays were performed for each powder sample as well as a control. Female fruit flies (Drosophila melanogaster) were temporarily anesthetized by CO2 exposure, then transferred to the 35 mm diameter petri dishes with deltamethrin dust. The dishes were covered with their mating top and the motion of the fruit flies was recorded to establish knockdown time (i.e., the time after which there was no further translational motion).
The lethalities of the two crystalline forms of deltamethrin were compared by exposing fruit flies (Drosophila melanogaster), a well-established model for pesticide development (Schneider, D. Using Drosophila as a Model Insect. Nat. Rev. Genet. 2000, 1, 218-226), to 2 mg of the respective dusts (containing […] deltamethrin Form I or Form II) dispersed evenly in 35 mm-diameter plastic Petri dishes. Each trial was performed in triplicate for each crystalline form, as well as a control.
The motions of fruit flies were monitored by a video camera. A custom designed video process programmer was used to record the onset of hyperactivity and to track the time required for the expiration of the flies, as measured by knockdown. […] (FIG. 5A). Both the onset of hyperactivity and death occurred much later for deltamethrin Form I-exposed flies.
Lethality was deduced by the standard measurement of knockdown time, defined as time when a fly is immobile in a supine or sideways position for at least one second (i.e., no translational motion). Lindquist, A. W.; Jones, H. A.; Madden, A. H. DDT Residual-type sprays as affected by light. J. Econ. Entomol. 1946, 39, 55-59. Paralyzed flies never recover.
FIGS. 5A and 5B depict the graphs of the lethality comparison of the two forms of deltamethrin, in terms of fly velocities and knockdown times. The corresponding average knockdown times and median knockdown times (KT50) are denoted. The median knockdown time (KT50) for each polymorph was determined from multiple trials using twenty female flies each. KT50 is defined as the time required to render 50 percent of the insects motionless. Kawada, H.; Dida, G. O.; Ohashi, K.; Komagata, O.; Kasai, S.; Tomita, T.; Sonye, G.; Maekawa, Y.; Mwatele, C.; Njenga, S. M.; Mwandawiro, C; Minakawa, N.; Takagi, M. Multimodal pyrethroid resistance in malaria vectors, Anopheles gambiae s.s., Anopheles arabiensis, and Anopheles funestus s.s. in Western Kenya. PLoS One 2011, 6, No. e22574; Limoee, M.; Ladonni, H.; Enayati, A. A.; Vatandoost, H.; Aboulhasani, M. Detection of pyrethroid resistance and cross resistance to DDT in seven field-collected strains of the German cockroach, Blattella germanica (L.) (Dictyoptera: Blattellidae). J Biol. Sci. 2006, 6, 382-387. The average knockdown times for 2 mg deltamethrin dusts with Form I and Form II were 123 minutes and 21 minutes, respectively. The KT50 values were 113 minutes and 20 minutes, respectively (FIG. 5B).

In series [2] the test system is yellow fever mosquitos (Aedes aegypti). The series is described as follows: Polymorph lethality, dust, residual exposure method, Aedes mosquitoes. The series is classed as in vivo. Conditions: for average knockdown time / median knockdown time (KT50): 2 mg deltamethrin dust. The method, then:
as §1, with “on yellow fever mosquitos (Aedes aegypti)” for “on fruit flies”, “each dust” for “each powder”, “Female Aedes mosquitoes” for “Female fruit flies (Drosophila melanogaster)”, “the 90” for “the 35”, “the mosquitoes” for “the fruit flies”
The lethalities of the two crystalline forms of deltamethrin were compared by exposing yellow fever mosquitos (Aedes aegypti) to 2 mg of the respective dusts (containing […] deltamethrin Form I or Form II) dispersed evenly in 90 mm-diameter plastic Petri dishes. Each trial was performed in duplicate for each crystalline form, as well as a control.
The motions of mosquitoes were monitored by a video camera. A custom designed video process programmer was used to record the onset of hyperactivity and to track the time required for the expiration of the mosquitoes, as measured by knockdown. No Form I-exposed fly survived more than 300 minutes. […] (FIG. 6A). The death occurred much later for deltamethrin Form I-exposed mosquitoes.
Lethality was deduced by the standard measurement of knockdown time, defined as time when a mosquito is immobile in a supine or sideways position for at least one second (i.e., no translational motion). Lindquist, A. W.; Jones, H. A.; Madden, A. H. DDT Residual-type sprays as affected by light. J. Econ. Entomol. 1946, 39, 55-59. Paralyzed flies never recover.
FIGS. 6A and 6B depict the graphs of the lethality comparison of the two forms of deltamethrin, in terms of mosquito velocities and knockdown times. The corresponding average knockdown times and median knockdown times (KT50) are denoted. The median knockdown time (KT50) for each polymorph was determined from multiple trials using twenty female mosquitoes each. KT50 is defined as the time required to render 50 percent of the insects motionless. Kawada, H.; Dida, G. O.; Ohashi, K.; Komagata, O.; Kasai, S.; Tomita, T.; Sonye, G.; Maekawa, Y.; Mwatele, C.; Njenga, S. M.; Mwandawiro, C; Minakawa, N.; Takagi, M. Multimodal pyrethroid resistance in malaria vectors, Anopheles gambiae s.s., Anopheles arabiensis, and Anopheles funestus s.s. in Western Kenya. PLoS One 2011, 6, No. e22574; Limoee, M.; Ladonni, H.; Enayati, A. A.; Vatandoost, H.; Aboulhasani, M. Detection of pyrethroid resistance and cross resistance to DDT in seven field-collected strains of the German cockroach, Blattella germanica (L.) (Dictyoptera: Blattellidae). J. Biol. Sci. 2006, 6, 382-387. The average knockdown times for 2 mg deltamethrin Form I and Form II dust were 202 minutes and 22 minutes, respectively. The KT50 values were 192 minutes and 21 minutes, respectively (FIG. 6B).

Another series relates to Drosophila melanogaster. The series can be described thus: Polymorph lethality, polyethylene glycol coated crystalline thin film. The series is classed as in vivo. Conditions: for average knockdown time / median knockdown time (KT50): polyethylene glycol coated crystalline film (2.2*2.2 cm^2). From the text: FIGS. 7A-7B are a lethality comparison of the two forms of deltamethrin. FIG. 7A is a graph depicting the velocities of fruit flies exposed to crystalline films (2.2*2.2 cm^2) of deltamethrin Form I and II; FIG. 7B is a comparison of Drosophila melanogaster knockdown times on crystalline films (2.2*2.2 cm^2) of deltamethrin Form I and Form II.
The knockdown times for neat thin films are too short to allow a valid comparison of their lethality. Therefore, thin films of deltamethrin Form I and Form II were prepared and partially coated by nebulized polyethylene glycol, producing islands of inert material with a small fraction of the deltamethrin film exposed (FIG. 7B). […] The corresponding average knockdown times and median knockdown times (KT50) are denoted. The average knockdown times for polyethylene glycol coated deltamethrin Form I and Form II crystalline film were 385 minutes and 70 minutes, respectively. The KT50 values were 400 minutes and 61 minutes, respectively (FIG. 7B).
This confirms that Form I dust is transformed to Form II dust by the microwave heating treatment.

Series [3] in a line: Phase behavior / thermodynamic stability of deltamethrin polymorphs. The format is physicochemical. The procedure: Thermodynamic stability of deltamethrin polymorphs was evaluated by the phase transformation behaviors and respective melting points. […] Rarely, transformation from Form II to Form I can be observed between crossed polarizers when spherulites of Form II are in contact with concomitant polycrystalline Form I (FIG. 4A, 4B). Form II fibers grow radially along their <010> direction. […] Upon phase transformation to Form I, the orientation of new grains become misaligned, resulting in a loss of observable birefringence. At room temperature the transformation can be observed by a moving growth front, which advances at a velocity of 0.3 μm/min.

Where [4] appears, read: female Aedes aegypti, 2 mg dust in 90 mm Petri dish.

As for `CC1(C)[C@H](C(=O)O[C@H](C#N)c2cccc(Oc3ccccc3)c2)[C@@H]1C=C(Br)Br` [Form I, (S)-cyano(3-phenoxyphenyl) methyl (1R,3R)-3-(2,2-dibromovinyl)-2,2-dimethylcyclopropane-1-carboxylate, reference compound], the average knockdown time turned out to be 123 min in series [1], 202 min in series [2] (female Aedes aegypti) and 385 min in the series with Drosophila melanogaster. Also, the “median knockdown time (KT50)” value in series [1] came to 113 min; in series [2] (female Aedes aegypti), 192 min; in the series on Drosophila melanogaster, 400 min. For the same molecule, the “longest survival (no individual survived more than)” value is not above 210 min in series [1] and not above 300 min in series [2] (setting [4]). This molecule also registered an onset of hyperactivity in series [1] of 40 min.

As for `CC1(C)[C@H](C(=O)O[C@H](C#N)c2cccc(Oc3ccccc3)c2)[C@@H]1C=C(Br)Br` [Form II, (S)-cyano(3-phenoxyphenyl) methyl (1R,3R)-3-(2,2-dibromovinyl)-2,2-dimethylcyclopropane-1-carboxylate], the “transformation of Form II to Form I on storage” value in series [3] (crystalline film confined between glass slides, 6 months at room temperature) was “did not transform to Form I”. Moreover, the “room temperature stability ranking” value in series [3] (room temperature) is “Form I> Form II”. In addition, in series [3] (room temperature, Form II spherulites in contact with polycrystalline Form I), the “velocity of the growth front of the Form II to Form I transformation” value was determined as 0.3 μm/min. In addition, the figures for the average knockdown time (in series [1]; in series [2] (female Aedes aegypti); with Drosophila melanogaster) were 21 min, 22 min and 70 min, respectively. In addition, the “median knockdown time (KT50)” value turned out to be 20 min in series [1], 21 min in series [2] (female Aedes aegypti) and 61 min with Drosophila melanogaster. In addition, the lethality ranking entry in series [1] (dust, fruit flies) is “more lethal than Form I”; in series [2] (dust, Aedes aegypti), “more lethal than Form I”. The “longest survival (no individual survived more than)” value is not above 40 min in series [1] and not above 30 min in series [2] (setting [4]). Besides, the onset of hyperactivity result in series [1] and in series [2] (setting [4]) was “as soon as they were exposed” throughout. In the series on Drosophila melanogaster (thin films), the “knockdown times, comparison of the forms” value is listed as “shorter for Form II than for Form I”.
